Values of other authors, collected in patent publication US20180055752A1, “TOPICAL COMPOSITIONS TO REDUCE HAIR GROWTH” (The Regents of the University of California, priority 2016, published 2018).
Entries after “also recorded” stand apart in the source; their conditions may differ. Where two headings read alike, the source gives them in different places.

Assays:
[1] = eight children treated for hypoglycemia of infancy
deer hair follicle = conditions: tolbutamide 1 mM
[2] = system: cultured human hair follicles
[3] = system: Kir6.2/SUR1 and SUR2B K-ATP channels

Structure (SMILES) | hypertrichosis as side effect [1] | effect on hair follicle growth stimulated by minoxidil / diazoxide (deer hair follicle; 10 μM minoxidil) | effect on anagen [2] | K-ATP channel subtype selectivity and potency [3] | K-ATP channel subtype selectivity and potency ([3]; listed as Tolbutamide) | inhibition of hair follicle growth (deer hair follicle; glibenclamide at a single concentration)
CC1=NS(=O)(=O)c2cc(Cl)ccc2N1 [diazoxide] | all developed hypertrichosis |  |  |  |  | 
CCCCNC(=O)NS(=O)(=O)c1ccc(C)cc1 [tolbutamide] |  | abolished the effect of 10 μM minoxidil, and diazoxide | shorten anagen | selectively inhibits Kir6.2/SUR1 K-ATP channels with low potency | selectively inhibits Kir6.2/SUR1 KATP channels with low potency | 
COc1ccc(Cl)cc1C(=O)NCCc1ccc(S(=O)(=O)NC(=O)NC2CCCCC2)cc1 [glibenclamide] |  |  |  | nonselectively blocks both SUR1 and SUR2B forms with high affinity; also recorded: non-selectively blocks both SUR1 and SUR2B forms with high affinity |  | did not inhibit deer hair follicle growth
